Measured values reported in patent US4156009A, “Diazepine derivatives” (Hexachimie, priority 1977, dated 1979).

Key:
Acute toxicity = assay: Acute toxicity; parameters: species or system rat; settings: in vivo
[1] = tested on: ulcers caused by phenylbutazone; assay: Protective activity as regards ulcers caused by phenylbutazone; type: in vivo, rat (male, OFA strain); settings: for Ulceration Index: maximum index 300
Experimental: Male rats, of the OFA strain, weighing 160-180 g are placed on a diet of water 24 hours before the oral administration of the product studied (1 cm^3 /100 g). 30 minutes later, the rats receive 150 mg/kg phenylbutazone (1 cm^3 /100 g) orally.
The stomachs are removed 6 hours after the last treatment. Each stomach is classified according to the following scale:
The average of the results for a batch, multiplied by the percentage of rats having ulcers in this batch, gives an ulceration index whose maximum is 300.
The following Table I gives the ulceration indices and the protective dose 50 (PD50) which corresponds to the index 150.

Shay ulcers = assay: Activity on Shay ulcers (pylorus ligation); type: in vivo, rat (male, OFA strain); settings: 2 hours after binding; for Pepsin / pH / Volume / Acidity free / Acidity total: gastric liquid; for Acidity free / Acidity total: potentiometry; for Ulcers: number in the rumen; for Acidity free ds the secretion / Acidity total ds the secretion / Pepsin ds the secretion: whole secretion
Experimental: Male rats of the OFA strain, weighing 190-210 g, receive a solution of 20% glucose and […] sodium chloride as their only food for 3 days.
Under an ether anaesthetic, the pylorus is tied, while taking care not to include blood vessels in the binding. The tested product is administered intraperitoneally and the stomach is removed 2 hours after the binding. The gastric liquid is collected and the following parameters are measured:
free acidity (potentiometry)
total acidity (potentiometry)
peptic activity (hydrolysis of albumen of oxen and measurement of the tyrosine liberated).
The number of ulcers in the rumen are counted.

[2] = 8 mg/kg intraperitoneally, p < 0.05
[3] = 16 mg/kg intraperitoneally, p < 0.01
[4] = 32 mg/kg intraperitoneally, p < 0.001
[5] = 32 mg/kg intraperitoneally, p < 0.01

CN1C(=O)CN=C(c2ccccc2)c2c(C3CC3)csc21 [Example 6, 6-Cyclopropyl-1,3-dihydro-1-methyl-5-phenyl-2-oxo-2H-thieno[2,3-e]diazepine]
LD50 (Acute toxicity; po, orally in the rat, read-out: lethal dose LD50): 915 mg/kg | selectivity ratio (Acute toxicity; LD50 / PD50, oral, rat, read-out: ratio of toxicity/activity or therapeutic index): ~23 | Ulceration Index ([1]; 16 mg/kg orally): 240 | Ulceration Index ([1]; 32 mg/kg orally): 179 | Ulceration Index ([1]; 64 mg/kg orally): 62 | Ulceration Index ([1]; 128 mg/kg orally): 29 | ED50 ([1]; Rattus norvegicus, po, orally, corresponds to ulceration index 150, read-out: PD50 (protective dose 50)): 39 mg/kg | Pepsin (Shay ulcers; 8 mg/kg intraperitoneally, ns): 0.67 mg/mL | pH (Shay ulcers; 8 mg/kg intraperitoneally, ns): 1.19 | Volume (Shay ulcers; [2]): 4.0 cm^3 | Acidity free (Shay ulcers; 8 mg/kg intraperitoneally, ns): 91 mEq/l | Acidity total (Shay ulcers; 8 mg/kg intraperitoneally, ns): 109 mEq/l | Pepsin (Shay ulcers; 16 mg/kg intraperitoneally, ns): 0.67 mg/mL | pH (Shay ulcers; 16 mg/kg intraperitoneally, ns): 1.21 | Volume (Shay ulcers; [3]): 2.7 cm^3 | Acidity free (Shay ulcers; 16 mg/kg intraperitoneally, ns): 82 mEq/l | Acidity total (Shay ulcers; 16 mg/kg intraperitoneally, ns): 102 mEq/l | Pepsin (Shay ulcers; 32 mg/kg intraperitoneally, ns): 0.64 mg/mL | Volume (Shay ulcers; [4]): 1.7 cm^3 | pH (Shay ulcers; 32 mg/kg intraperitoneally, p < 0.05): 1.67 | Acidity free (Shay ulcers; [5]): 56.5 mEq/l | Acidity total (Shay ulcers; [5]): 80 mEq/l | Ulcers (Shay ulcers; 8 mg/kg intraperitoneally): 0 | Ulcers (Shay ulcers; 16 mg/kg intraperitoneally): 0 | Ulcers (Shay ulcers; 32 mg/kg intraperitoneally): 0 | Acidity free ds the secretion (Shay ulcers; 8 mg/kg intraperitoneally, ns): 388 mEq/l | Acidity total ds the secretion (Shay ulcers; 8 mg/kg intraperitoneally, ns): 459 mEq/l | Pepsin ds the secretion (Shay ulcers; [2]): 2.66 mg | Acidity free ds the secretion (Shay ulcers; [3]): 275 mEq/l | Acidity total ds the secretion (Shay ulcers; [3]): 335 mEq/l | Pepsin ds the secretion (Shay ulcers; [3]): 1.83 mg | Acidity free ds the secretion (Shay ulcers; [4]): 145 mEq/l | Acidity total ds the secretion (Shay ulcers; [4]): 189 mEq/l | Pepsin ds the secretion (Shay ulcers; [4]): 1.14 mg
